The values that follow come from patent US20100266604A1, “USE OF TAM RECEPTOR INHIBITORS AS IMMUNOENHANCERS AND TAM ACTIVATORS AS IMMUNOSUPPRESSORS” (The Salk Institute for Biological Studies, priority 2007, published 2010).

Experiment [1] deals with SOCS1 and SOCS3 mRNA in DCs. Put plainly: Q-PCR of SOCS1 and SOCS3 mRNA in DCs. Conditions: for SOCS1 mRNA induction: 300 U/ml IFNα. The experiment is classed as cell-based, mouse. As for the experimental part: (§1) Splenic DCs (1×10^6 cells/ml) or BM-DCs (5×10^6 cells/ml) were cultured in serum-free medium and treated with the indicated concentrations of murine recombinant Gas6, murine recombinant Protein S, the TLR ligands indicated above, recombinant mouse IFNα (PBL Biomedical laboratories), recombinant mouse Axl-FC chimera (R&D), cyclohexamide (Sigma) or Actinomycin D (Sigma). Whole cell lysates and RNA extraction were performed as indicated below.
(§2) After stimulation, cells were harvested, and total RNA was isolated using the RNeasy mini kit (Qiagen). Reverse transcription was performed according to manufacturer instructions with RT Superscript III (Invitrogen). PCR reactions were performed on an ABI Prism 7700 Sequence Detection System using SYBRGreen PCR master mix (Applied Biosystems). Each reaction was normalized against the expression of β-actin or GAPDH. Analyses of dissociation curves were performed with SDS software (Applied Biosystems) to ensure the absence of nonspecific amplification. Q-PCR primers used herein are listed below.

Experiment [2] deals with Axl mRNA and protein in DCs. Put plainly: Axl expression in DCs (Q-PCR, FACS, Western blot). In kind it is cell-based, mouse. Conditions: for Axl expression by Western blot: WT DCs. As for the experimental part:
as §1
DCs were washed in PBS and harvested in NuPage LDS sample buffer (Invitrogen) with 100 μM DTT. Whole cell lysates were resolved by electrophoresis, proteins were transferred to a PVDF membrane (Immobilon P, Millipore), blocked in 3% BSA/TBS-Tween-20 and probed with the indicated antibodies. For fluorescent western blotting with the Odyssey system, proteins were transferred to an Immobilon-FL PVDF membrane (Millipore) and incubated with two primary antibodies in 0.1% casein/PBS-Tween-20. Following incubation with fluorescence-labeled secondary antibodies, membranes were scanned with the Odyssey imaging system (LI-COR).
as §2
Cells were incubated for 15 minutes with a rat mAb to CD16/32 to block Fc receptors and then with primary antibodies for 20 minutes on ice. The following mAbs against murine molecules were used: allophycocyanin- and phycoerythrin-conjugated anti-CD11c, FITC-conjugated anti-MHC class I (H-2K^b) and anti-MHC class II (I-A^b), PerCP-Cy5.5-conjugated anti-CD3, anti-CD19 and anti-NK1.1 (all from BD Pharmingen). For Axl staining, cells were processed as described, fixed with 10% paraformaldehyde, permeabilized with Saponin (0.1%, Sigma), incubated with Axl (M-20) antibody for 30 minutes and then with anti-goat Cy5 antibody (Jackson ImmunoResearch). Fluorescent cells were acquired with a FacsSort flow cytometer (Becton Dickinson) and analyzed with FlowJo (Tree Star) software.

Experiment [3] deals with IRF-7 and IFI-204 mRNA in DCs. Put plainly: Q-PCR of IRF-7 and IFI-204 mRNA in DCs. In kind it is cell-based, mouse. Conditions: splenic DCs, 300 U/ml IFNα. On the procedure:
as §1, §2

Experiment [4] has as its system TLR-induced cytokine production in DCs. Put plainly: DC activation assay: TLR-induced cytokine production (ELISA / ISRE luciferase reporter). In kind it is cell-based, mouse. To be noted: IFNα, 10 nM CpG, 15 hours, 3 nM ProS (FIG. 8A). On the procedure:
Splenic DC or BM-DCs (1×10^6 cells/ml) were cultured overnight in serum-free medium (StemSpan, StemCell Technologies Inc.) in the presence of the indicated concentrations of LPS from Salmonella minnesota R595 Re (Alexis), CpG-ODN 1668 (TCCATGACGTTCCGATGCT; SEQ ID NO: 19; Integrated DNA Technologies) or Poly I:C (InvivoGen) alone or in the presence of murine recombinant Gas6 (R&D Systems) or murine recombinant Protein S (produced as described in Prasad et al., (2006) Mol Cell Neurosci 33:96-108). Cytokine production was quantified in cell-free supernatants by ELISA (ebioscience for IL-12, IL-6 and TNFα and PBL-biomedical for IFNα) or by a luciferase assay using a cell line containing an ISRE-responsive element luciferase reporter construct for Type I IFN (Jiang et al., (2005) Nat Immunol 6:565-570).

The target of experiment [5] is TAM receptors (on mouse dendritic cells). The experiment in a line: cell-based or functional assay.
A further experiment deals with T1, STAT1 (mouse, UniProt P42225).
T1 construct: endogenous full-length protein in the cell lysate; also called total STAT1
T1 sequence (transcription factor, looked up): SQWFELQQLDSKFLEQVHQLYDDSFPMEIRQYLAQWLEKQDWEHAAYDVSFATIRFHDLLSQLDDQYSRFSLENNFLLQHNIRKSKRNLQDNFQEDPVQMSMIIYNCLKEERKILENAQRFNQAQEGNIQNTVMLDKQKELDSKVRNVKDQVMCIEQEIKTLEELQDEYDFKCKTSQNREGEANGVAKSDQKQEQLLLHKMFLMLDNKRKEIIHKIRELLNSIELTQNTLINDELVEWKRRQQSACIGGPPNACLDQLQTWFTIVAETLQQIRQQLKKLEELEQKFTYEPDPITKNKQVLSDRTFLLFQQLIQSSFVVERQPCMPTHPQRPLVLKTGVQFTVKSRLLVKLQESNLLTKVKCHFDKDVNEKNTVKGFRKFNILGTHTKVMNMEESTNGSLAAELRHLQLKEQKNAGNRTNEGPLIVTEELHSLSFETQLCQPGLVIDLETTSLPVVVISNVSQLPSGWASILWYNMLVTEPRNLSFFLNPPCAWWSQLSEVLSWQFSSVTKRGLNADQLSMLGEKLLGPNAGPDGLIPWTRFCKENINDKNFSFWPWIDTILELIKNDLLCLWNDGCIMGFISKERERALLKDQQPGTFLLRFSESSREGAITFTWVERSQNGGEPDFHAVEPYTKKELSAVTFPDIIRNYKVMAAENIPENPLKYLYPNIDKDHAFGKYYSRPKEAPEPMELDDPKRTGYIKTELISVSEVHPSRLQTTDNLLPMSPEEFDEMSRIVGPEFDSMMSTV
The experiment in a line: co-immunoprecipitation from BM-DC whole cell lysates, untreated (-) or treated 20 min with 50 nM Gas6 (+); IP with antibody to the IFN receptor R1 chain, immunoblot for STAT1. (In western blotting, separated proteins are transferred to a membrane and probed.)

Experiment [6] has as its target T2, Axl (mouse, endogenous in bone marrow-derived dendritic cells) (mouse, UniProt Q00993 19-888).
T2 construct: whole, on cells; Endogenous protein co-immunoprecipitated from Triton X-100 lysates of mouse BM-DCs, not a recombinant construct; also called TAM receptor
T2 sequence (looked up): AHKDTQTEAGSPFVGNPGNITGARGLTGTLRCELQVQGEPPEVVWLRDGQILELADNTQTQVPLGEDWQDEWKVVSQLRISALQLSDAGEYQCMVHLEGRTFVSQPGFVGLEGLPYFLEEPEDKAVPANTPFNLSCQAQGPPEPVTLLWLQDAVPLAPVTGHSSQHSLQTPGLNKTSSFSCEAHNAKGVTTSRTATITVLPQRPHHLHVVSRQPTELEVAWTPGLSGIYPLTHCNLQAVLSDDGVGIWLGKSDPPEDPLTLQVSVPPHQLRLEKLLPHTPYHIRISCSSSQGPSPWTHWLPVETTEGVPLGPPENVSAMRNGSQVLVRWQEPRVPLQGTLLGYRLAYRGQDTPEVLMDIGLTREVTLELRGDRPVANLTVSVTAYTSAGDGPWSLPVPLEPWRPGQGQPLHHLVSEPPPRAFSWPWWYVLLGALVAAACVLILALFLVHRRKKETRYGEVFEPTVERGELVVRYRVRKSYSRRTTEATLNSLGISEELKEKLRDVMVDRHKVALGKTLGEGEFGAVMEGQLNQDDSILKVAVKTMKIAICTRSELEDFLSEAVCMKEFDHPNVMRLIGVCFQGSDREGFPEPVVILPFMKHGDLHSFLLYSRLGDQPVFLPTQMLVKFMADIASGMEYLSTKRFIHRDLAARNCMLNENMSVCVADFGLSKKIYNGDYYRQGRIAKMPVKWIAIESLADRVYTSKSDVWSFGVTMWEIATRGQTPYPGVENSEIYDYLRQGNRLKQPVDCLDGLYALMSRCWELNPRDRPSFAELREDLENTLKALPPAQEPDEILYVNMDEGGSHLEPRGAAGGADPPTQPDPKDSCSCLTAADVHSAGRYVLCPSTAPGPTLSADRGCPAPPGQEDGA
Put plainly: co-immunoprecipitation from BM-DC whole cell lysates, untreated (-) or treated 20 min with 50 nM Gas6 (+); IP with antibody to the IFN receptor R2 chain, immunoblot for Axl.

Take IFNα: in experiment [1] (IFN-treated, integrated over the 6-hour time course), the “SOCS1 mRNA expressed by TAM TKO DCs relative to WT DCs” value is given as ~24%. The “SOCS1 mRNA induction” value in experiment [1] (TAM TKO splenic DCs) is on record as “significantly blunted”; in experiment [1] (WT splenic DCs, 2 hours, sustained up to 6 hours) it was “robust induction”. Also, the Axl induction result in experiment [2] (STAT1−/− DCs) is given as “lost”. For the same molecule, in experiment [2], the “Axl expression by Western blot” value is given as “substantial up-regulation”. For the same molecule, the “IFNα-induced IRF-7 and IFI-204 mRNA levels, WT versus TAM TKO DCs” value in experiment [3] is given as “indistinguishable”.

“ProS: murine recombinant Protein S, the second agonist for TAM receptors”: the “inhibiting TLR-induced cytokine production in WT DCs, compared with Gas6” value in experiment [4] is “equally effective”.

In experiment [5], “murine recombinant Gas6 (R&D Systems) (from UniProt Q61592 28-674) (ligand)” returned an SOCS1 mRNA expression in BM-DCs (Q-PCR) after addition of 50 nM Gas6 of 10 fold and an SOCS3 mRNA expression in BM-DCs (Q-PCR) after addition of 50 nM Gas6 of 10 fold.

Turning to poly I:C, the Axl induction entry in experiment [2] (Ifnar−/− DCs) and in experiment [2] (STAT1−/− DCs) was “lost” throughout. The “Axl expression by Western blot” value in experiment [2] is “substantial up-regulation”.

B1: R1 chain of the type I IFN receptor (mouse, endogenous in BM-DCs) (receptor, UniProt P33896 27-590, looked up)
chain: ENLKPPENIDVYIIDDNYTLKWSSHGESMGSVTFSAEYRTKDEAKWLKVPECQHTTTTKCEFSLLDTNVYIKTQFRVRAEEGNSTSSWNEVDPFIPFYTAHMSPPEVRLEAEDKAILVHISPPGQDGNMWALEKPSFSYTIRIWQKSSSDKKTINSTYYVEKIPELLPETTYCLEVKAIHPSLKKHSNYSTVQCISTTVANKMPVPGNLQVDAQGKSYVLKWDYIASADVLFRAQWLPGYSKSSSGSRSDKWKPIPTCANVQTTHCVFSQDTVYTGTFFLHVQASEGNHTSFWSEEKFIDSQKHILPPPPVITVTAMSDTLLVYVNCQDSTCDGLNYEIIFWENTSNTKISMEKDGPEFTLKNLQPLTVYCVQARVLFRALLNKTSNFSEKLCEKTRPGSFSTIWIITGLGVVFFSVMVLYALRSVWKYLCHVCFPPLKPPRSIDEFFSEPPSKNLVLLTAEEHTERCFIIENTDTVAVEVKHAPEEDLRKYSSQTSQDSGNYSNEEEESVGTESGQAVLSKAPCGGPCSVPSPPGTLEDGTCFLGNEKYLQSPALRTEPALLC
notes: whole, on cells; Endogenous protein immunoprecipitated from mouse BM-DC lysates; also called IFNAR1; IFN receptor R1 chain
B1: the binding result with STAT1 is “no binding”.

B2: IFNAR2 (receptor, mouse, UniProt O35664 22-513, looked up)
receptor chain: SLETITPSAFDGYPDEPCTINITIRNSRLILSWELENKSGPPANYTLWYTVMSKDENLTKVKNCSDTTKSSCDVTDKWLEGMESYVVAIVIVHRGDLTVCRCSDYIVPANAPLEPPEFEIVGFTDHINVTMEFPPVTSKIIQEKMKTTPFVIKEQIGDSVRKKHEPKVNNVTGNFTFVLRDLLPKTNYCVSLYFDDDPAIKSPLKCIVLQPGQESGLSESAIVGITTSCLVVMVFVSTIVMLKRIGYICLKDNLPNVLNFRHFLTWIIPERSPSEAIDRLEIIPTNKKKRLWNYDYEDGSDSDEEVPTASVTGYTMHGLTGKPLQQTSDTSASPEDPLHEEDSGAEESDEAGAGAGAEPELPTEAGAGPSEDPTGPYERRKSVLEDSFPREDNSSMDEPGDNIIFNVNLNSVFLRVLHDEDASETLSLEEDTILLDEGPQRTESDLRIAGGDRTQPPLPSLPSQDLWTEDGSSEKSDTSDSDADVGDGYIMR
notes: endogenous full-length protein in the cell lysate; also called R2 chain of the type I IFN receptor; IFN receptor R2 chain
Regarding B2, in experiment [6], the binding result is recorded as “no binding”.
